# Values quoted from earlier work as cited in publication PMC9344054, “Studies on Chemical Characterization of Ginkgo Amillaria Oral Solution and Its Drug–Drug Interaction With Piceatannol 3′-O-β-D-Glucopyranoside for Injection” (Frontiers in Pharmacology, 2022).
# What was measured:
# [1] = system: most human UGTs, including UGT1A1, 1A3, 1A4, 1A6, 1A7, 1A8, and 1A9; design: method as in Lv et al., 2018; conditions: UGT1A1, 1A3, 1A4, 1A6, 1A7, 1A8, 1A9; ref Lv et al., 2018; cited from earlier work
# [2] = system: P-glycoprotein; design: method as in An et al., 2011; Palatini and De Martin, 2016; conditions: previous studies; ref An et al., 2011; Palatini and De Martin, 2016; cited from earlier work
# [3] = system: breast cancer resistance protein; design: method as in An et al., 2011; Palatini and De Martin, 2016; conditions: ref An et al., 2011; Palatini and De Martin, 2016; cited from earlier work
# [4] = system: human hepatic UGT1A1; design: method as in Cao et al., 2017; conditions: in vitro; ref Cao et al., 2017; cited from earlier work
# [5] = system: human hepatic UGT1A4; design: method as in Cao et al., 2017; conditions: in vitro; ref Cao et al., 2017; cited from earlier work
# [6] = design: method as in Zhao et al., 2006; conditions: pretreatment of GBE 100 mg kg−1 for 10 days; ref Zhao et al., 2006; cited from earlier work
# [7] = system: UGT1A9; design: method as in Zhang et al., 2021; conditions: ref Zhang et al., 2021; cited from earlier work
# [8] = system: UGT1A1; design: method as in Zhang et al., 2021; conditions: ref Zhang et al., 2021; cited from earlier work
# [9] = system: UGT1A3; design: method as in Zhang et al., 2021; conditions: ref Zhang et al., 2021; cited from earlier work
# [10] = system: UGT1A6; design: method as in Zhang et al., 2021; conditions: ref Zhang et al., 2021; cited from earlier work
# [11] = design: method as in Fan et al., 2009; conditions: ten healthy male volunteers, ref Fan et al., 2009, cited from earlier work
structure (smiles),measurement,setting,value
O=c1cc(-c2ccc(O)c(-c3c(O)cc(O)c4c(=O)cc(-c5ccc(O)cc5)oc34)c2)oc2cc(O)cc(O)c12 [amentoflavone],inhibition toward most human UGTs,[1],strong inhibition
O=c1c(O)c(-c2ccc(O)cc2)oc2cc(O)cc(O)c12 [kaempferol],inhibition of the P-glycoprotein-mediated efflux of ritonavir,[2],remarkable inhibition
same,inhibition of breast cancer resistance protein,[3],inhibitor
O=c1cc(-c2ccc(O)c(O)c2)oc2cc(O)cc(O)c12 [luteolin],inhibition of human hepatic UGT1A1,[4],inhibited
same,inhibition of human hepatic UGT1A4,[5],inhibited
CC(C)NCC(O)COc1cccc2ccccc12 (stereo not shown) [propranolol],change of AUC of propranolol,[6],significantly reduce
same,change of C max of propranolol,[6],significantly reduce
O=c1c(O)c(-c2ccc(O)c(O)c2)oc2cc(O)cc(O)c12 [quercetin],inhibition of UGT1A9,[7],strong inhibitor
same,inhibition of UGT1A1,[8],moderate inhibitor
same,inhibition of human hepatic UGT1A1,[4],inhibited
same,inhibition of UGT1A3,[9],moderate inhibitor
same,inhibition of UGT1A6,[10],weak inhibitor
same,inhibition of human hepatic UGT1A4,[5],inhibited
CC(C)(C)NCC(O)COc1ccc(NC(=O)NC2CCCCC2)cc1 (stereo not shown) [talinolol],increase of AUC0-24 of talinolol,[11]; repeated ingestion of GBE,26%
same,increase of C max of talinolol,[11]; repeated ingestion of GBE,36%
same,effect on pharmacokinetics of talinolol,[11]; single dose of GBE orally,did not affect
